{"source": "paper PMC3845904", "about": "(Chemical research in toxicology, 2009)", "key": {"human P450 1B1 [1]": {"molecular_target": "T1, human P450 1B1 (Homo sapiens, UniProt Q16678)", "T1 sequence (Q16678 1-543)": "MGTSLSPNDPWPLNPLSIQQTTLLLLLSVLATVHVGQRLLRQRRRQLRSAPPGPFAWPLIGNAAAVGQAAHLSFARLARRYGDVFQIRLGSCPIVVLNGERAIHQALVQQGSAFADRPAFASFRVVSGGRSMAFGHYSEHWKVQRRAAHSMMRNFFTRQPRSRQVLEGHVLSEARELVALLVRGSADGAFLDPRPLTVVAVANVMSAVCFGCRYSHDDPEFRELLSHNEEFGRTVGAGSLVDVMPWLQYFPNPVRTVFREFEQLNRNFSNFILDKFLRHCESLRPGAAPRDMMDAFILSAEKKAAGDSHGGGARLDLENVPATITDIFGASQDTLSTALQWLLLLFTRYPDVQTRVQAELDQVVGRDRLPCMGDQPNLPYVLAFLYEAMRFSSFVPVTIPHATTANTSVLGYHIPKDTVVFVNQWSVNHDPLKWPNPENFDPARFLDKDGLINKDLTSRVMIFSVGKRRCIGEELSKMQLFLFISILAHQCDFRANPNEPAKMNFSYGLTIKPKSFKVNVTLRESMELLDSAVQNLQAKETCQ"}, "human P450 1B1 [2]": {"molecular_target": "T1, human P450 1B1", "conditions": "pH 7.4"}, "human P450 1B1 [3]": {"molecular_target": "T1, human P450 1B1", "test": "Inhibition of 7-ethoxyresorufin O-deethylation", "conditions": "results not presented"}, "human P450 1B1 [4]": {"molecular_target": "T1, human P450 1B1", "test": "Spectral binding titration", "conditions": "purified P450 1B1 1.0 μM, ND = not detected at 100 μM"}, "human P450 1B1 [5]": {"molecular_target": "T1, human P450 1B1", "test": "biochemical"}}, "note": "Read-outs that look alike come from different tables or passages of the source.", "data": [{"smiles": "CCC#Cc1ccc(-c2ccccc2)cc1", "note": "[4BuB, 4-butinylbiphenyl]", "values": [{"measurement": "IC50", "setting": "human P450 1B1 [1]", "value": "1.5 ± 0.3", "unit": "µM"}, {"measurement": "Kd", "setting": "human P450 1B1 [2]", "value": "54 ± 6.2", "unit": "µM"}]}, {"smiles": "CC#Cc1ccc(-c2ccccc2)cc1", "note": "[4PB, 4-(1-propynyl)biphenyl]", "values": [{"measurement": "manner of inhibition of P450 1B1 EROD activity", "setting": "human P450 1B1 [3]", "value": "mechanism-based manner"}, {"measurement": "Reverse Type I spectra ΔAmax/Ks (magnitude of spectral binding)", "setting": "human P450 1B1 [4]", "value": 0.0062}, {"measurement": "Reverse Type I spectra ΔAmax", "setting": "human P450 1B1 [4]; means ± SEs", "value": "0.074 ± 0.008"}, {"measurement": "IC50", "setting": "human P450 1B1 [5]", "value": "1.8 ± 0.2", "unit": "µM"}]}]}
